# Source: patent publication US20040034076A1, “Novel carbamates and carbamides, production and use thereof as endothelin receptor antagonists” (priority 2000, published 2004)
# Tests used:
# human ETB receptor = target: T1, human ETB receptor (Homo sapiens, UniProt P24530); experiment: ETB receptor binding test ([125I]-ET3, CHO cell membranes); conditions: cloned human ETB receptor-expressing CHO cell membranes, 25 pM [125I]-ET3, 25° C., 30 min
# T1 construct: expressed in transfected cells; host or cells: CHO cells
# T1 sequence (P24530 27-442): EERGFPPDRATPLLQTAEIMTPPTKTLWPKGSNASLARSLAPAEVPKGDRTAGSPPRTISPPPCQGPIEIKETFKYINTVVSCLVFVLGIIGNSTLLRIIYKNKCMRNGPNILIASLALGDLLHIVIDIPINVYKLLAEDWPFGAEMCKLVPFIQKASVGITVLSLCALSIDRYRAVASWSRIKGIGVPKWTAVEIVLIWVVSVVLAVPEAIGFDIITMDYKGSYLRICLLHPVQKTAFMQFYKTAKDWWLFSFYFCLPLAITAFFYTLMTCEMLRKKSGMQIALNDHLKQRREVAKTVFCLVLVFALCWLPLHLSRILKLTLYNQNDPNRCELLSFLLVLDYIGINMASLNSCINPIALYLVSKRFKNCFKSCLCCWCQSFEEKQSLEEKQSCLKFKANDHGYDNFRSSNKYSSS
# Method: (§1) For binding studies, cloned human ETA or ETB receptor-expressing CHO cells were employed.
# (§2) The ETA or ETB receptor-expressing CHO cells were proliferated in DMEM NUT MIX F12 medium (Gibco, No. 21331-020) using 10% fetal calf serum (PAA Laboratories GmbH, Linz, No. A15-022), 1 mM glutamine (Gibco No. 25030-024), 100 U/ml of penicillin and 100 μg/ml of streptomycin (Gibco, Sigma No P-0781). After 48 hours, the cells were washed with PBS and incubated at 37° C. for 5 minutes with 0.05% trypsin-containing PBS. Neutralization was then carried out with medium and the cells were collected by centrifugation at 300×g.
# (§3) For membrane preparation, the cells were adjusted to a concentration of 10^8 cells/ml of buffer (50 mM tris-HCl buff r, pH 7.4) and then disintegrated by ultrasound (Branson Sonifier 250, 40-70 seconds/constant/output 20).
# (§4) For the ETA and ETB receptor binding test, the membranes were suspended in incubation buffer (50 mM tris HCl, pH 7.4 with 5 mM MnCl2, 40 mg/ml of bacitracin and 0.2% of BSA) in a concentration of 50 μg of protein per test batch and incubated at 25° C. with 25 pM of [125J]-ET1 (ETA receptor test) or 25 pM of [125I)-ET3 (ETB receptor test) in the presence and absence of test substance. The nonspecific binding was determined using 10^−7 M ET1. After 30 min, the free and the bound radioligand was separated by filtration through GF/B glass fiber filters (Whatman, England) on a Skatron cell collector (Skatron, Lier, Norway) and the filters were washed with ice-cold tris HCl buffer, pH 7.4 with 0.2% of BSA. The radioactivity collected on the filters was quantified using a Packard 2200 CA liquid scintillation counter.
# human ETA receptor = target: T2, human ETA receptor (Homo sapiens, UniProt P25101); experiment: ETA receptor binding test ([125J]-ET1, CHO cell membranes); conditions: cloned human ETA receptor-expressing CHO cell membranes, 25 pM [125J]-ET1, 25° C., 30 min
# T2 construct: expressed in transfected cells; host or cells: CHO cells
# T2 sequence (P25101 21-427): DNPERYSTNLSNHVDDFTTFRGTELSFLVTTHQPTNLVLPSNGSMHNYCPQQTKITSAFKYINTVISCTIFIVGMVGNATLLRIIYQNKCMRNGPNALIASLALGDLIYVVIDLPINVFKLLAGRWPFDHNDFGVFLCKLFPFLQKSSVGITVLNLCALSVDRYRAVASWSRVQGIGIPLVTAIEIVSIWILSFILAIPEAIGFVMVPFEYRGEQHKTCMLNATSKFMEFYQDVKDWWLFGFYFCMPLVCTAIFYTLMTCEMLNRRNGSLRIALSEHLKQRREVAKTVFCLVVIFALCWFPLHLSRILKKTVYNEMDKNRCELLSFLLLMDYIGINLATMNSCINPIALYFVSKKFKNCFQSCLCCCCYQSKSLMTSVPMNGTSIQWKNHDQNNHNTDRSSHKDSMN
# Method: as §1, §2, §3, §4
Ki (human ETB receptor),Ki (human ETA receptor),SMILES
195 nM,19 nM,"Cc1cc(C)nc(OC(C(=O)O)C(NC(=O)N(C)C2CCCCC2)(c2ccccc2)c2ccccc2)n1 (stereo not drawn) [Compound I-202, N-{[Cyclohexyl(methyl)amino]carbonyl}-2-[(4,6-dimethyl-2-pyrimidinyl)oxy]-3,3-diphenyl-β-alanine]"
> 10000 nM,397 nM,"COc1cc(OC)nc(OC(C(=O)O)C(NC(=O)N(C)C)(c2ccccc2)c2ccccc2)n1 (stereo not drawn) [Compound I-11, 2-[(4,6-Dimethoxy-2-pyrimidinyl)oxy]-N-[(dimethylamino)carbonyl]-3,3-diphenyl-β-alanine]"
4220 nM,73 nM,"Cc1cc(C)nc(OC(C(=O)O)C(NC(=O)N2CCCCC2)(c2ccccc2)c2ccccc2)n1 (stereo not drawn) [Compound I-52, 2-[(4,6-Dimethyl-2-pyrimidinyl)oxy]-3,3-diphenyl-N-(1-piperidinylcarbonyl)-β-alanine]"
2440 nM,235 nM,"COc1cc(OC)nc(OC(C(=O)O)C(NC(=O)N(C)Cc2ccccc2)(c2ccccc2)c2ccccc2)n1 (stereo not drawn) [Compound I-260, N-{[Benzyl(methyl)amino]carbonyl}-2-[(4,6-dimethoxy-2-pyrimidinyl)oxy]-3,3-diphenyl-β-alanine]"
3850 nM,53 nM,"Cc1cc(C)nc(OC(C(=O)O)C(NC(=O)N2CCCC2)(c2ccccc2)c2ccccc2)n1 (stereo not drawn) [Compound I-26, 2-[(4,6-Dimethyl-2-pyrimidinyl)oxy]-3,3-diphenyl-N-(1-pyrrolidinylcarbonyl)-β-alanine]"
5770 nM,265 nM,"COc1cc(OC)nc(OC(C(=O)O)C(NC(=O)N(C)c2ccccc2)(c2ccccc2)c2ccccc2)n1 (stereo not drawn) [Compound I-155, 2-[(4,6-Dimethoxy-2-pyrimidinyl)oxy]-N-[(methylanilino)carbonyl]-3,3-diphenyl-β-alanine]"
2340 nM,97 nM,"COc1cc(OC)nc(OC(C(=O)O)C(NC(=O)OCc2ccccc2)(c2ccccc2)c2ccccc2)n1 (stereo not drawn) [Compound I-140, N-[(Benzyloxy)carbonyl]-2-[(4,6-dimethoxy-2-pyrimidinyl)oxy]-3,3-diphenyl-β-alanine]"
> 10000 nM,89 nM,"COC(=O)NC(c1ccccc1)(c1ccccc1)C(Oc1nc(OC)cc(OC)n1)C(=O)O (stereo not drawn) [Compound I-230, 2-[(4,6-Dimethoxy-2-pyrimidinyl)oxy]-N-(methoxycarbonyl)-3,3-diphenyl-β-alanine]"
> 10000 nM,253 nM,"CCN(CC)C(=O)NC(c1ccccc1)(c1ccccc1)C(Oc1nc(OC)cc(OC)n1)C(=O)O (stereo not drawn) [Compound I-86, N-[(Diethylamino)carbonyl]-2-[(4,6-dimethoxy-2-pyrimidinyl)oxy]-3,3-diphenyl-β-alanine]"
≥ 10000 nM,310 nM,"COc1ccc(N(C)C(=O)NC(c2ccccc2)(c2ccccc2)C(Oc2nc(OC)cc(OC)n2)C(=O)O)cc1 (stereo not drawn) [Compound I-121, 2-[(4,6-Dimethoxy-2-pyrimidinyl)oxy]-N-{[4-methoxy(methyl)-anilino]carbonyl}-3,3-diphenyl-β-alanine]"
2330 nM,14 nM,"COc1ccc(CN(C)C(=O)NC(c2ccccc2)(c2ccccc2)C(Oc2nc(C)cc(C)n2)C(=O)O)cc1 (stereo not drawn) [Compound I-194, 2-[(4,6-Dirnethyl-2-pyrimidinyl)oxy]-N-{[(4-methoxybenzyl)-(methyl)amino]carbonyl}-3,3-diphenyl-β-alanine]"
6620 nM,147 nM,"COc1ccc(CN(C)C(=O)NC(c2ccccc2)(c2ccccc2)C(Oc2nc(OC)cc(OC)n2)C(=O)O)cc1 (stereo not drawn) [Compound I-23, 2-[(4,6-Dimethoxy-2-pyrimidinyl)oxy]-N-{[(4-methoxybenzyl)-(methyl)amino]carbonyl}-3,3-diphenyl-β-alanine]"
3450 nM,117 nM,"Cc1cc(C)nc(OC(C(=O)O)C(NC(=O)N2CCOCC2)(c2ccccc2)c2ccccc2)n1 (stereo not drawn) [Compound I-75, 2-[(4,6-Dimethyl-2-pyrimidinyl)oxy]-N-(4-morpholinylcarbonyl)-3,3-diphenyl-β-alanine]"
1090 nM,13 nM,"COc1cc(OC)nc(OC(C(=O)O)C(NC(=O)OCc2cc(OC)c(OC)cc2[N+](=O)[O-])(c2ccccc2)c2ccccc2)n1 (stereo not drawn) [Compound I-266, N-{[(4,5-Dimethoxy-2-nitrobenzyl)oxy]carbonyl}-2-((4,6-dimethoxy-2-pyrimidinyl)oxy]-3,3-diphenyl-β-alanine]"

SMILES,Ki (human ETB receptor),Ki (human ETA receptor)
"COc1ccc(OC(=O)NC(c2ccccc2)(c2ccccc2)C(Oc2nc(OC)cc(OC)n2)C(=O)O)cc1 (stereo not drawn) [Compound I-170, 2-[(4,6-Dimethoxy-2-pyrimidinyl)oxy]-N-[(4-methoxyphenoxy)-carbonyl]-3,3-diphenyl-β-alanine]",1930 nM,120 nM
"COc1cc(OC)nc(OC(C(=O)O)C(NC(=O)Oc2ccc(C)c(C)c2)(c2ccccc2)c2ccccc2)n1 (stereo not drawn) [Compound I-168, 2-[(4,6-Dimethoxy-2-pyrimidinyl)oxy]-N-[(3,4-dimethylphenoxy)-carbonyl]-3,3-diphenyl-β-alanine]",730 nM,105 nM
